Test results taken from patent US5985630A, “Assay for detecting inhibitors of aminoacyl-tRNA synthetases” (Zeneca Limited, priority 1993, dated 1999).

How the values were obtained:
[1] = molecular target: T1, E. coli ITRS (isoleucyl-tRNA synthetase) (Escherichia coli, UniProt P00956); assay: Colorimetric assay based on valine as substrate (valine-based assay of the invention); type: biochemical; details: 15 mM valine, 0.75 mM ATP, 37° C., read-out: Concentration giving 50% inhibition (I50)
T1 construct: endogenous in cells; enzyme partially purified in house
Description: 2. Measurement of ITRS activity using a Colorimetric Assay based on using Valine as Substrate
Incubations were set up in quadruplicate (as above) with a final volume of 200 μl as described below. Stock reagents used in the method were as follows:
(§1) Prepared as described above. The specific activity of the enzyme used in the present example was approximately 145 nM of product formed/minute/mg, and was about 5%-10% active. The enzyme was diluted as appropriate. It will be appreciated that the enzyme amounts in the assay can be adjusted according to the purity of the enzyme used.
(§2) The assay mixture for a final volume of 200 μl was composed of:
The standard assay (in 200 μl) was carried out in quadruplicate in Eppendorf microcentrifuge tubes. The ingredients were pre-incubated for 2-3 minutes at 37° C. and the reaction started by addition of 20 μl of appropriately diluted enzyme extract (as described above).
Thus the final reaction contained reagents in the following concentrations:
0.12 mg of mixed tRNA species from E. coli (as described above) HPLC purified from […] available from by Sigma (UK) Ltd 1 unit/μl of inorganic pyrophosphatase and
an appropriate concentration of ITRS (for example […] of the enzyme as described above).
The samples were incubated at 37° C. for 20-60 minutes. […] The optical absorbance is then measured at a wavelength of 630 nm using a spectrophotometer.

[2] = molecular target: T1, E. coli ITRS (isoleucyl-tRNA synthetase); assay: 3H-isoleucine-based radiolabelled (standard radiometric) assay; type: biochemical; details: for IC50: standard 3H-isoleucine radiometric assay, 10 μM isoleucine, 1 mM ATP, 37° C., read-out: Concentration giving 50% inhibition (I50); for Mode of inhibition: with respect to the amino acid substrate, Compound 1 at 0, 0.25 μM and 1.0 μM with varying 3H-isoleucine up to 100 μM
Description: 2. Measurement of ITRS Activity using a ^3 H-Isoleucine-Based Radiolabelled Assay
The activity of ITRS during fractionation was monitored using conditions based on the method described by Steinmetz and Weil (7), and as described below. Stock reagents used in the method are as follows:
as §1, §2
The standard assay (in 200 μl) was carried out in quadruplicate in Eppendorf microcentrifuge tubes. The ingredients were preincubated for 2-3 minutes at 37° C., and the reaction started by addition of approximately 20 μl of the appropriately diluted enzyme extract as described above.
The final reaction contained reagents in the following concentrations:
0.1% bovine serum albumin
10 μM Isoleucine containing ^3 H-Ile
The assay was incubated at 37° C. for 20 minutes, and stopped by addition of 50 μl 20% TCA, and the tubes placed on ice.
200 μl of the reaction mixture was pipetted onto 1.5 cm^2 cellulose 3MM filters. The filters were washed (in groups of 4) as follows: 1×10% TCA, 2×5% TCA, and 2×ethanol using fresh wash medium for each set of replicates to avoid cross contamination. The dried filters were placed in 20 ml scintillation vials and the radioactivity counted in 15 ml Optiphase.
The inhibition constants of two compounds were measured and the results compared with the values obtained using the standard ^3 H-isoleucine assay.

T1 sequence (P00956 whole entry): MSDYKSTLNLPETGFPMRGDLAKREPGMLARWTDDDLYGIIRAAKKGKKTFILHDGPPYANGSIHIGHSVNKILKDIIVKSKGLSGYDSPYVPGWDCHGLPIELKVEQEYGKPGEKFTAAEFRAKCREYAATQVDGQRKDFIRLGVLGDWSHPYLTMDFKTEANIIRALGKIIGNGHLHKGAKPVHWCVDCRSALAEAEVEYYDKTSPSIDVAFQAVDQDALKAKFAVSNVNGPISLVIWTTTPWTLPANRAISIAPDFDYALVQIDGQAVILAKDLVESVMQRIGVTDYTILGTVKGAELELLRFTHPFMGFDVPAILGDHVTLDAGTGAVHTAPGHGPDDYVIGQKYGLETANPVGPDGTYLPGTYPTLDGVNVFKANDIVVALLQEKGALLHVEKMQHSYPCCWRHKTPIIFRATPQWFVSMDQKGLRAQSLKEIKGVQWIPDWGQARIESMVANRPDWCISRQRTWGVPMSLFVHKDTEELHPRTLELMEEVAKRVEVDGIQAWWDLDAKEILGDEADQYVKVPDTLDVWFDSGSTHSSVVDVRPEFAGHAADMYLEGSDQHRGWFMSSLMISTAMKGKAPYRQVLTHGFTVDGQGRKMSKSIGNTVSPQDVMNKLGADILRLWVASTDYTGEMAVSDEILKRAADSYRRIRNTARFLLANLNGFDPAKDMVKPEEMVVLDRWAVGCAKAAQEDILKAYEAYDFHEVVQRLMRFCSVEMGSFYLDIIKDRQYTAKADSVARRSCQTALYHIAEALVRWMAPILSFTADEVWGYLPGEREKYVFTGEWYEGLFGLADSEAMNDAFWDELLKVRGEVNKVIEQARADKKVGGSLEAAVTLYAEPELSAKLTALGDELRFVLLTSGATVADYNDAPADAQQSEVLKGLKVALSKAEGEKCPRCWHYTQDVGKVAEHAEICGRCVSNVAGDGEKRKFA

Q: `CC(=O)C(C)C1OC1CC1COC(CC(C)=CC(=O)O)C(O)C1O` (stereo not shown) [Compound 1] was tested. Which IC50 [1] did it give?
A: 2000 nM

Q: What about the IC50 [2] of the same compound?
A: 109 nM

Q: What about the Mode of inhibition [2] of the same compound?
A: competitive with respect to isoleucine

Q: And the Mode of inhibition ([2]; listed as compound 1)?
A: competitive with the amino acid

Q: How did the IC50 [1] turn out when `C=COCCOC(=O)C=C(C)CC1OCC(CC2OC2C(C)C(C)O)C(O)C1O` (stereo not shown) [Compound 2] was run?
A: 38 nM

Q: And the IC50 [2]?
A: 2.3 nM

Q: What about the Mode of inhibition [2] of the same compound?
A: competitive with the amino acid
